{"source": "patent US7875604B2", "about": "“Compounds that inhibit HIV particle formation” (University of Virginia Patent Foundation, priority 2004, dated 2011)", "key": {"U1 cells": {"tested_on": "U1 cells", "assay": "MTS staining for cell viability in U1 cell assay", "format": "cell-based", "settings": "Table 6, MTS, read-out: TC50 (the source's name)", "summary_of_the_method": "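U1 cells plated with 5 ng/mL TNF-α (final) and compound in 1/2-log dilutions from the highest concentration the stock allowed, then cultured 3 days. Cytotoxicity read by MTS tetrazolium dye reduction at assay end. Assay dropped if Trypan Blue viability was below 70%.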"}, "HeLa": {"tested_on": "HeLa", "assay": "HIV-1 Rev assay toxicity/non-specificity readout (Firefly Luciferase)", "format": "cell-based", "settings": "50% inhibition of Firefly Luciferase (toxicity/non-specificity), 24 hours; read-out: TC50 (the source's name)", "experimental": "The eight compounds listed in Table 1 were also tested in an assay that measured HIV-1 Rev function. The HIV-1 Rev assay is based upon the use of a reporter for detecting whether drug candidates are capable of inhibiting the function of the viral Rev protein. The reporter used for these assays is the Renilla Luciferase protein, which is an enzyme that produces detectable light when mixed with certain chemicals. For this assay, a cell line has been developed in which the production of the reporter by the cells requires the function of HIV-1 Rev. Therefore, if a drug candidate inhibits the function of Rev, it decreases the amount of the reporter produced by the cells. By using Renilla Luciferase as the reporter, the inhibition of Rev is easily detected as a decrease in the amount of light produced by the cells when mixed with the appropriate chemicals. Furthermore, the cell line for this assay has been engineered to use a second similar reporter (Firefly Luciferase) that detects whether drug candidates are toxic.\nCompounds were tested in the Rev assay using the maximum high-test concentration possible based on the supplied stocks as shown in Table 3. Compounds were prepared at a 2× high-test concentration by combining drug stock with tissue culture media at a ratio of 5 μL of drug to 995 μL of media. This 2× high-test sample was subsequently serially diluted in tissue culture media using 1/2 log dilutions. This series of 2× concentrated drug was subsequently diluted 1:1 by combining with an equal volume of cells in media in the 96-well plates used for the assay. Representative data for two of the compounds is also depicted in FIG. 5.\nLeptomycin B is a control compound known to inhibit Rev function."}}, "data": [{"substance": "2-chloro-N-(4-methylphenyl)-4-(trifluoromethyl)-1,3-thazole-5-carboxamide [Compound 91161]", "values": [{"measurement": "CC50", "setting": "U1 cells", "result": 22.3, "unit": "µM"}, {"measurement": "CC50", "setting": "HeLa", "result": "> 39.5", "unit": "µM"}]}]}
